The source of these data is patent publication US20060062747A1, “Use of sweetener acids for the microbiological stabilization of foodstuffs, cosmetic products, consumer goods and pharmaceutical productions” (Nutrinova Nutrition Specialties & Food Ingredients GmbH, priority 2002, published 2006).

Data set [1] is described as follows: pH of the test solutions and drinks.
The nature of data set [2]: Sensory testing of sweetener acids in foods and drinks. The settings on record: in vivo. The source says: Sweetener acids are the acids of known salts of high-intensity sweeteners such as acesulfame-K (=potassium salt of acesulfamic acid), sodium cyclamate or sodium saccharin. Sweetener acids which can be used are, for example, saccharin acid, cyclamic acid, glycyrrhicic acid and acesulfamic acid and also mixtures of two or more of these acids. Inventively preferred sweetener acids are acesulfamic acid, cyclamic acid and saccharin acid, and also mixtures of two or all three sweetener acids. On account of their low pKa of 1.5 to 2.5, the sweetener acids have never previously been considered as […]. […] The acid profile is balanced.
At the same time, the sweetener acids have, on a molar basis, a sweetening power equivalent to the corresponding sweetener salt. In addition to the described acid taste and sweet taste, no significant off-taste and aftertaste occur.

A further data set deals with testers. Nature of the data set: Pairwise comparison test for identical acid taste.

Source text for testers: Pairwise comparison test with the question: Which sample is the more acid: (forced choice, n=13)
Pairwise comparison test with the question: Which sample is the more acid? (forced choice, n=15)

As for `CC1=CC(=O)NS(=O)(=O)O1` [Acesulfamic acid], the pH in data set [1] (Example 1, identical acid taste solutions (Table 3)) worked out at 3.07; in data set [1] (Example 4, identical acid taste solutions (Table 9)), 3.07. Also, the “time-intensity profile of the acid taste” value in data set [2] was “comparable to that of malic acid”. For the same compound, in the data set with testers (Example 1, vs 203 mg/l acesulfamic acid, citric acid + 250 mg/l acesulfame-K, n=13), the “citric acid concentration of identical acid taste” value amounted to 137 mg/L. Besides, in the data set with testers (Example 4, vs 203 mg/l acesulfamic acid, acetic acid + 250 mg/l acesulfame-K, n=14), the “acetic acid concentration of identical acid taste” value amounted to 190 mg/L.

As for `O=C1NS(=O)(=O)c2ccccc21` [Saccharin acid, o-benzosulfimide], in data set [1] (Example 3, identical acid taste solutions (Table 7)), the pH is given as 3.05. In addition, the “citric acid concentration of identical acid taste” value with testers (Example 3, vs 200 mg/l saccharin acid, citric acid + 225 mg/l saccharin sodium, n=15) came to 100 mg/L.
